Legend:
[1] = hydrodynamic radius of micelles by dynamic light scattering (DLS); assay type: physicochemical; details: compound at 1.0 wt %
Summary of the method: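 Micelle hydrodynamic radius (Rh) was measured by dynamic light scattering with each amphiphile at 1.0 wt %.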

[2] = molecular target: T1, boron transporter (BOR1) BOR1-GFP fusion protein (Arabidopsis thaliana, UniProt Q8VYR7); experiment: structural (thermal) stability of solubilized BOR1-GFP by fluorescence-based size exclusion chromatography (FSEC); details: for structural stability of solubilized BOR1-GFP after heating (RFU, FSEC): heated at 40° C. for 10 minutes, 1 wt % compound
T1 construct: made in house; host or cells: Saccharomyces cerevisiae FGY217
Description: The ability of PSAs or PSEs to stabilize the structure of boron transporter (BOR1) was measured in an aqueous solution. That is, the BOR1 protein solubilized in each amphipathic compound was denatured by heating, and then structural stability of BOR1 was measured using fluorescence-based size exclusion chromatography (FSEC).
Specifically, Arabidopsis thaliana-derived BOR1 was expressed in the form of a fusion protein having a GFP tag at the C-terminus in Saccharomyces cerevisiae FGY217 cells. The cells were grown in an URA-medium supplemented with 0.1% glucose. 2% galactose was added to the cell culture to induce protein expression and the cells were cultured at 20° C. for 18 hours (see Drew, D. et al., Nat. Protoc. 2008, 3, 784-798.). After culture, the cells were harvested and used to obtain the cell membranes (see Leung, J. et al., Protein Expr. Purif. 2010, 72, 139-146.). Membranes containing BOR1-GFP fusion proteins were diluted to a final total protein concentration of 2.8 mg/mL in PBS (pH7.4) supplemented with 1 wt % DDM, 1 wt % PSAs (PSA-C9, PSA-C10 or PSA-C11) or 1 wt % PSEs (PSE-C9, PSE-C11 or PSE-C13). The diluted samples were incubated at 4° C. for 1 hour with gentle shaking, and insoluble substances were removed by centrifugation at 14,000 g for 1 hour at 4° C. Supernatants containing the dissolved protein samples were incubated for 10 minutes at the specified temperature (35, 40, 45 or 50° C.), and strongly agglutinated proteins were removed by centrifugation at 14,000 g for 10 minutes at 4° C. 200 μL aliquots were taken from the supernatant and injected into a Superose 6 10/300 column equilibrated with 20 mM Tris-HCl (pH 7.5), 150 mM NaCl and 0.03% DDM. Each elution fraction was collected from a retention volume of 6.4 mL (i.e., after 6.4 mL of solution had passed), and added to a well of a clear bottom 96-well plate at a volume of 200 μL. GFP fluorescence generated in each fraction was measured using an excitation wavelength of 470 nm and an emission wavelength of 512 nm.

[3] = molecular target: T2, Salmonella typhimurium melibiose permease (MelB) (Salmonella typhimurium, UniProt P30878); experiment: MelB extraction efficiency and thermal stability by SDS-PAGE and western immunoblotting; details: 1.5 wt %; for solubilized MelB remaining in solution: 90 minutes; for MelB extraction efficiency: 0° C., 90 minutes (similar results at 45° C.)
T2 construct: made in house; host or cells: DW2 cells (melB and lacZY), Salmonella typhimurium DW2; plasmid pK95AHB/WT MelBst/CH10
T2 sequence (P30878 whole entry): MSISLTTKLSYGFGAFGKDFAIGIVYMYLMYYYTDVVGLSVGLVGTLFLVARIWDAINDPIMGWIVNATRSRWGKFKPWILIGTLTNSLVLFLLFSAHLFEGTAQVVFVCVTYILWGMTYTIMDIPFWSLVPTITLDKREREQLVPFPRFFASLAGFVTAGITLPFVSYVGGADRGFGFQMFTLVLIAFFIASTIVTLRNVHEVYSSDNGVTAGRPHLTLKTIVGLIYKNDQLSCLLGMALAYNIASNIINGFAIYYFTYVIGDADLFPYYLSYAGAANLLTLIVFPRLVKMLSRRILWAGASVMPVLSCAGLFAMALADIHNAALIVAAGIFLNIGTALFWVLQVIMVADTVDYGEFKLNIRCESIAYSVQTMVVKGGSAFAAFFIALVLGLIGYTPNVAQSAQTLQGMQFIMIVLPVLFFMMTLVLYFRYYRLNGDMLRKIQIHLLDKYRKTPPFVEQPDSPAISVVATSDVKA
Description: The ability of PSAs or PSEs to extract (solubilize) MelBst (Salmonella typhimurium melibiose permease) proteins and stabilize the structures thereof was measured. MelB proteins were extracted using PSAs, PSEs or DDM, and the amount of the extracted proteins and structural stability thereof were quantitatively analyzed by SDS-PAGE and western immunoblotting. The protein extraction efficiency and thermally stabilizing ability of the amphipathic compounds were simultaneously evaluated by extracting MelB proteins at four temperatures (0, 45, 55 or 65° C.) for 90 minutes using the amphipathic compounds at a concentration of 1.5 wt %.
Specifically, according to the method described in the journal article (P. S. Chae, et al., Chemistry. 2013, 19, 15645-15651.) published by the present inventors, proteins (MelBst) were produced using a plasmid pK95AHB/WT MelBst/CH10 containing a gene construct encoding wild-type MelB having 10×His tags at the C-terminus and Salmonella typhimurium DW2 cells (melB and lacZY). According to the method described in the journal article (A. S. Ethayathulla et al., Nat. Commun. 2014, 5, 3009), cells were cultured and the cell membranes were obtained from the cultured cells. Protein analysis was performed using a Micro BCA kit (Thermo Scientific, Rockford, Ill.). To measure solubilization/stability, membrane samples (the final concentration of membrane proteins was 10 mg/mL) containing MelBst were mixed with a solubilization buffer solution (20 mM sodium phosphate, pH 7.5, 200 mM NaCl, 10% glycerol and 20 mM melibiose) containing DDM, PSAs (PSA-C11) or PSEs (PSE-C9, PSE-C11, PSE-C13) at a concentration of 1.5% (w/v). Extracts were incubated at four different temperatures (0, 45, 55 and 65° C.) for 90 minutes. Fractions were removed by ultracentrifugation at 355,590 g for 45 minutes using a Beckman Optima™ MAX ultracentrifuge equipped with a No. 4 TLA-100 rotor. 20 μg of proteins was separated using a 15% SDS-PAGE gel. Next, immunoblotting was performed using Penta-His-HRP antibodies (Qiagen, Germantown, Md.). After performing SDS-PAGE and immunoblotting, the amount of solubilized MelB was quantitated and expressed as a percentage of the amount of MelB measured in the control group.

For `CCCCCCCCCCCCO[C@@H]1O[C@H](CO)[C@@H](O[C@H]2O[C@H](CO)[C@@H](O)[C@H](O)[C@H]2O)[C@H](O)[C@H]1O` [DDM, n-dodecyl-β-D-maltopyranoside, reference compound], the “Rh (nm), hydrodynamic radius of micelles” value [1] was 3.4 ± 0.03 nm, the “state of solubilized BOR1-GFP after heating” value (“state of solubilized BOR1-GFP” for short) ([2]; 35° C. for 10 minutes) was “retained the original state thereof” and the “state of solubilized BOR1-GFP” value ([2]; 40 or 45° C. for 10 minutes) was “complete denaturation/aggregation occurred”. The “structural stability of solubilized BOR1-GFP after heating (RFU, FSEC)” value (from here on “structural stability”) [2] was “RFUs were relatively low due to denaturation after heating” and the “solubilized MelB remaining in solution” value ([3]; 55° C.) was “disappeared in the solution”.
For `CCCCCCCCCCCOCC(COCCCCCCCCCCC)O[C@@H]1OC(CO[C@@H]2OC(CO)[C@@H](O)C(O)C2O)[C@@H](O[C@@H]2OC(CO)[C@@H](O)C(O)C2O)C(O[C@@H]2OC(CO)[C@@H](O)C(O)C2O)C1O[C@@H]1OC(CO)[C@@H](O)C(O)C1O` (stereo partly shown) [PSE-C11], the “Rh (nm), hydrodynamic radius of micelles” value [1] was 3.46 ± 0.05 nm, the “state of solubilized BOR1-GFP” value ([2]; 40 or 45° C. for 10 minutes) was “maintained monodispersibility” and the “structural stability” value [2] was “greatly improved compared to DDM”. The MelB extraction efficiency [3] was “extracted at an efficiency similar to the efficiency observed in the case of DDM”, the “solubilized MelB remaining in solution” value ([3]; 55° C.) was “remained dissolved in the solution” and the “solubilized MelB remaining in solution” value ([3]; 65° C.) was “a small amount of dissolved MelB was observed”.
With `CCCCCCCCOCC(COCCCCCCCC)(COCCCCCCCC)CO[C@@H]1OC(CO[C@@H]2OC(CO)[C@@H](O)C(O)C2O)[C@@H](O[C@@H]2OC(CO)[C@@H](O)C(O)C2O)C(O[C@@H]2OC(CO)[C@@H](O)C(O)C2O)C1O[C@@H]1OC(CO)[C@@H](O)C(O)C1O` (stereo partly shown) [TPS-E8] the “Rh (nm), hydrodynamic radius of micelles” value [1] was 43.8 ± 16.3 nm.
In the case of `CCCCCCCCCCCCCOCC(COCCCCCCCCCCCCC)O[C@@H]1OC(CO[C@@H]2OC(CO)[C@@H](O)C(O)C2O)[C@@H](O[C@@H]2OC(CO)[C@@H](O)C(O)C2O)C(O[C@@H]2OC(CO)[C@@H](O)C(O)C2O)C1O[C@@H]1OC(CO)[C@@H](O)C(O)C1O` (stereo partly shown) [PSE-C13], the “Rh (nm), hydrodynamic radius of micelles” value [1] is reported as 14.1 ± 0.24 nm, the “structural stability” value [2] is reported as “greatly improved compared to DDM” and the “solubilized MelB remaining in solution” value ([3]; 55° C.) is reported as “remained dissolved in the solution”.
For `CCCCCCCCCCCC(CCCCCCCCCCC)CO[C@@H]1OC(CO[C@@H]2OC(CO)[C@@H](O)C(O)C2O)[C@@H](O[C@@H]2OC(CO)[C@@H](O)C(O)C2O)C(O[C@@H]2OC(CO)[C@@H](O)C(O)C2O)C1O[C@@H]1OC(CO)[C@@H](O)C(O)C1O` (stereo partly shown) [PSA-C11], the “Rh (nm), hydrodynamic radius of micelles” value [1] was 3.28 ± 0.03 nm, the “structural stability” value [2] was “remarkably improved as compared to DDM and PSA-C9” and the MelB extraction efficiency [3] was “extracted at an efficiency similar to the efficiency observed in the case of DDM”. The “solubilized MelB remaining in solution” value ([3]; 55° C.) was “remained dissolved in the solution”.

Reference: patent publication US20190169218A1, “AMPHIPATHIC COMPOUND HAVING NOVEL PENTA-SACCHARIDE HYDROPHILIC GROUP AND USE THEREOF” (Industry-University Cooperation Foundation Hanyang …, priority 2016, published 2019)
